Key:
Assay type in all cases: in vivo, HIV-1-infected adults
HIV-1 [1] = test: Protocol-defined virologic failure and drug resistance testing (GenoSure MG, PhenoSense); details: EFV arm; through Week 24
Excerpt: PDVF was defined as either: (1) confirmed HIV-1 RNA ≥40 copies/mL at any time after prior confirmed suppression to <40 copies/mL; or (2) a confirmed >1 log10 copies/mL above the nadir level. Genotypic information required for screening was generated using the GenoSure® MG assay; genotypic information and phenotypic observations during the treatment period were generated using the PhenoSense® combination resistance test.

[2] = Clinical laboratory evaluations
Method: (§1) Physical examinations, measurement of vital signs, and clinical laboratory evaluations were performed at Weeks 4, 8, 12, 16 and 24, and participants were closely monitored for AEs and SAEs throughout. AEs were classified according to MedDRA version 19.0. The severity and relationship to study drug was assessed by the local investigator.

HIV-1 [3] = test: Phase IIb study 205891: plasma HIV-1 RNA response at Week 24 (FDA snapshot, observed); details: Week 24, mITT; GSK3532795: range across 60, 120, 180 mg arms; EFV 600 mg; each + TDF/FTC
Method: 205891 was a Phase IIb, randomized, active-controlled, double-blind trial performed at 58 sites in 12 countries across South America, North America, South Africa, and Europe. Participants were randomized 1:1:1:1 to one of four treatment arms; GSK3532795 at doses of 60 mg, 120 mg or 180 mg once daily (QD), and one reference arm with EFV at a dose of 600 mg QD, each given in combination with TDF/FTC 300/200 mg QD.
Participants attended study visits at screening, on Day 1, and once every 4 weeks from Week 4 to Week 24 (telephonic visits were conducted at Week 20). Participants were expected to continue treatment, then, through Week 96, with visit intervals every 8–12 weeks. A post-dose safety follow-up visit was also conducted 12 weeks after treatment discontinuation. Plasma HIV-1 RNA levels were quantified by the Abbott RealTime HIV-1 assay.
The FDA-defined snapshot algorithm was used for primary endpoint efficacy assessment, using the last plasma HIV-1 RNA value in the pre-defined Week 24 visit window (± 6 weeks) to determine response. The modified intent-to-treat (mITT) population consisted of participants who received at least one dose of GSK3532795 or EFV. […]

[4] = Adverse events through Week 24
Method: as §1

CD4+ T-cell count = test: Change from baseline in CD4+ T-cell count; details: EFV arm; Week 24
Excerpt: The primary endpoint was determination of the proportion of participants with plasma HIV-1 RNA <40 copies/mL at Week 24 after treatment with GSK3532795 or efavirenz (EFV). Secondary endpoints included mean changes from baseline in CD4+ T-cell count and mean changes in the percentage of CD4+ T-cell count over time. Secondary safety endpoints included frequency of adverse events (AEs), serious AEs (SAEs), and AEs leading to discontinuation through Week 24. Further secondary endpoints included emergence of drug resistance. Exploratory endpoints included assessment of the impact of Gag polymorphisms on the efficacy of GSK3532795. […] In addition, though Gag A364 is essentially invariant across genotypes, it was included in the primary endpoint analysis since emergent resistance to GSK3532795 (both in vitro and in Phase IIa studies) mapped, in part, to the A364V change. Thus, our analysis at the Week 24 primary endpoint was limited to these four positions. Pharmacokinetic (PK) analyses were performed to evaluate treatment exposure and assess the dose proportionality of GSK3532795 when co-administered with tenofovir disoproxil fumarate (TDF)/emtricitabine (FTC).

[5] = GSK3532795: range across 60, 120, 180 mg arms, EFV 600 mg
[6] = GSK3532795 arms pooled, EFV 600 mg, abstract

O=C1Nc2ccc(Cl)cc2[C@@](C#CC2CC2)(C(F)(F)F)O1 [EFV, efavirenz, reference compound]
Rate of protocol-defined virologic failure (PDVF) (HIV-1 [1]): 2% (1/53) | Mean increase in total cholesterol ([2]; EFV arm, baseline to Week 24): 17.6 mg/dL | Mean increase in triglyceride levels ([2]; EFV arm, baseline to Week 24): 41.1 mg/dL | Hepatic event attributed to EFV ([2]; one participant, discontinued): several Grade 4 liver chemistry elevations | Participants achieving HIV-1 RNA <40 copies/mL (HIV-1 [3]): 77% | Mean time to onset of first diarrhea event ([4]; EFV arm): 73.0 days | Mean duration of first diarrhea event ([4]; EFV arm (shortest)): 35.8 days | Incidence of dizziness relative to GSK3532795 ([4]; EFV arm vs GSK3532795 arms): ~10 fold | SAE considered related to study drug ([4]; GSK3532795 120 mg (no action taken), EFV (led to discontinuation)): increased hepatic enzyme | Grade 1–4-related abdominal pain [4, 5]: 0% | Grade 1–4-related diarrhea [4, 5]: 4% | Adverse events leading to discontinuation [4, 6]: 17% | Serious adverse events [4, 6]: 9% | Frequency of Grade 1–4-related AEs ([4]; GSK3532795 arms pooled, EFV 600 mg, through Week 24): 60% | Mean change from baseline in CD4+ T-cell count (SD) (CD4+ T-cell count): 134.7 (SD 151.70) cells/μL

From PMC6198970, “Safety, efficacy, and dose response of the maturation inhibitor GSK3532795 (formerly known as BMS-955176) plus tenofovir/emtricitabine once daily in treatment-naive HIV-1-infected adults: Week 24 primary analysis from a randomized Phase IIb trial” (PLoS ONE, 2018)
